According to US8399452B2, “Dibenzo[b,f][1,4]oxazepin-11-yl-N-hydroxybenzamides as HDAC inhibitors” (Methylgene Inc., priority 2006, dated 2013):
Where two headings read alike, the source gives them in different places.

Legend:
[1] = target: histone deacetylase (HDAC Enzyme); assay: Inhibition of Histone Deacetylase Enzymatic Activity (Boc-Lys(Ac)-AMC, Fluor-de-Lys developer); type: biochemical
Procedure: The following protocol is used to assay the compounds of the invention.
The mixture is pre-incubated for 5 minutes at room temperature. The reaction is started by bringing the temperature to 37° C. and adding 16 μl substrate. Total reaction volume is 50 μl.
In the Tables 8, 9 and 10, A≦[…]<B≦0.1 μM; 0.1 μM<C≦1 μM; and 1 μM<D≦10 μM.

[2] = tested on: HDAC in primary mouse cortical neurons; assay: Whole-Cell Histone Deacetylase (HDAC) Inhibition Assay in Primary Mouse Cortical Cultures; type: cell-based
Procedure: Primary neocortical cultures are established through the dissection of the neocortex from E17 embryos harvested from time-pregnant Balb/C mice. Following dissection, the neocortical tissue specimens undergo digestion by incubation at 37° C. for 10 minutes in dissection medium (1×HBSS/10 mM HEPES/1 mM Sodium Pyruvate) supplemented with (0.25%) Trypsin and (0.1%) DNase I. Digested tissue is washed and resuspended in plating medium (NeuroBasal/10% HS/0.5 mM L-Glutamine (Invitrogen Corporation)) for trituration. Additional plating medium is added, and the contents are passed over a 70 um cell-strainer. The cell-density is quantified using a hemacytometer, and dilutions are made to allow for the plating of 50000 cells/well/100 uL in 96-well PDL-coated plates. Plates are incubated for 4-5 hours in 37° C./5% CO2-incubator, after which time the entire volume is exchanged to feeding medium (NeuroBasal/2% B-27 Serum-free supplement/0.5 mM L-Glutamine/1% Penicillin-Streptomycin (Invitrogen Corporation)). The cultures undergo two 50% fresh feeding medium exchanges at 3 days in vitro (DIV3), and again at DIV7.
Compounds for testing are resuspended in dimethyl sulphoxide (DMSO), and further diluted in DMSO for a ten-point dose-response curve, with appropriate controls. Each master plate is assayed in triplicate. […] Three DIV9 culture plates are leveled to 50 uL/well, onto which each has overlaid 50 uL/well of the diluted daughter plate. The plates are returned to the 37° C./5% CO2-incubator for 16-18 hours.
The next step of the assay involves the exposure of a HDAC colorimetric substrate, comprising an acetylated lysine side chain, to the compound-treated neuronal cultures. Based on the ability of the compound to inhibit HDAC activity in the neuronal cultures, the substrate is deacetylated by HDACs, and subsequently sensitized. […] Compound-incubated culture plates are again leveled to 50 uL/well and 2 uL/well of 7.5 mM BOC-Lys (Ac)-AMC substrate is added and thoroughly mixed. Plates are returned to the 37° C./5% CO2-incubator for 1 hour.
The final addition to the culture plates entails treatment with a Fluor de LyS™-based developer (BIOMOL Research Laboratories, Inc.) to produce a fluorophore, which is analyzed using a spectrophotometer. The developer solution (1× Fluor de Lys™/1% NP-40/1 uM TSA in HDAC Buffer Solution) is prepared, and 50 uL/well is added to each of the wells of the culture plates. […] The plates are returned to the 37° C./5% CO2-incubator for 10-15 minutes, after which time, they are removed and set in the dark at room temperature for 5-10 minutes.

[3] = tested on: Drosophila Huntington's Disease model flies; assay: In Vivo Drosophila Fly Assay for Treatment of Huntington's Disease (automated climbing behavior, early/late speed effect size); set-up: species or system Drosophila melanogaster; conditions: for Speed 1 to 7 (effect size, early speed): average speed days 1-7 vs DMSO-carrier control; for Speed 8 to 10 (effect size, late speed): average speed days 8-10 vs DMSO-carrier control
Source text: The Drosophila Huntington's Disease assay used to screen compounds of the present invention followed that of WO 2007/002497, which is hereby incorporated by reference in its entirety.
Briefly, parental (model and driver) lines are maintained in sufficient quantities to provide virgins and males for assay crosses as well as perpetuating the lines. Disease model flies are maintained with the disease genes “silent”, functionally linked to a UAS enhancer element. The “driver” lines contain a GAL4 element under the control of a tissue-specific promoter. These are crossed together to generate the assay flies which have tissue-specific (i.e. CNS) expression of the disease gene(s).
Weekly assay crosses are set up with sufficient virgins and males to generate enough assay embryos for sorting. Approximately 50,000 males and 75,000 virgins are crossed in population cages. Embryos are collected for an eight hour window two days later. The embryos are then sorted onto 16 mm assay vials containing regular fly media and allowed to develop. Flies containing both the GAL4 driver element and the disease gene(s) are detected by the presence of GFP, a fluorescing protein. Approximately 10 assay flies eclose per vial, the optimal number for the behavioral assay. Once the flies eclose, they are transferred onto assay vials containing liquid Drosophila food. Similarly, control crosses are set up with virgins of the driver and males from a non-disease UAS line. Throughout fly production and the assay days, all flies are maintained at constant temperature and humidity, with preset light cycle, optimized for the particular lines and crosses.
Quality control (QC) for the parental lines is carried out weekly by collecting a sample of random male flies from each line. Single-fly PCR is carried out to ascertain the presence of the GAL4 or UAS element. If greater than 5% of the individuals lack the appropriate element, the assay cross is aborted. A second form of QC is also carried out to ensure that the GAL4 element is able to drive expression of a transgene. A sample of individual “driver” virgins is crossed to UAS-GFP males. Their progeny are visually checked for GFP expression in the appropriate tissues. Lack of GFP in greater than 4% of the crosses results in the assay being aborted.
Test compounds are weighed out and dissolved in DMSO at stock concentrations 100× what is desired in the assay and arrayed into 96-well master plates, including wells for DMSO-only controls and the positive control(s). A single well is reserved for a colored dye used to ensure proper orientation of compounds during drug dispensing and fly transfer. Replicate daughter plates for each day of the assay are stamped out. The plates are bar coded and stored at −20 C until used for the assay.
For a particular assay day, the plates are thawed and a robotic liquid handler is used to dilute the test compound into the liquid fly food and dispense the mixture into the assay vials. For Huntington Disease (HD) models, eight replicates per single treatment (one compound, one concentration) are dispensed. Fresh test compound treated media is made daily during an assay.
On the day the assay flies eclose (emerge from […]; assay Day 0) they are transferred to the test compound treated vials. On assay Day 1, the flies are transferred onto clean test compound treated vials one hour before assay time. They are then placed in the assay machine to acclimate to the appropriate climate conditions.
The assay machine is an environmentally-enclosed and controlled robot that can maintain user-set temperature and humidity. The machine can hold up to sixteen 96-vial racks in four quadrants, for a total of 1536 vials. There are four camera stations, which hold four vials each and a CCD camera for movie capture. […]

[4] = Table 10, read-out: HDAC Inhibition (IC50 μM) HDAC Enzyme
[5] = Table 10, whole-cell, read-out: HDAC Inhibition (IC50 μM) WC mouse cortical neurons

| Structure (SMILES) | IC50 [1, 4] | IC50 [2, 5] | other results |
| --- | --- | --- | --- |
| O=C(NO)c1ccc(OCCN2C(=O)c3ccccc3Oc3cc(Cl)ccc32)cc1 | < 0.05 µM | 1 to 5 µM |  |
| O=C(NO)c1ccc(OCC(=O)N2Cc3ccccc3Oc3ccccc32)cc1 | 0.1 to 1 µM | 1 to 5 µM |  |
| O=C(NO)c1cnc(N2C3CNC(C3)C2c2cc(C(F)(F)F)ccn2)nc1 (stereo not drawn) |  |  | Speed 1 to 7 (effect size, early speed) ([3]; 30 uM): 0.468; Speed 8 to 10 (effect size, late speed) ([3]; 30 uM): 0.087; Speed 1 to 7 (effect size, early speed) ([3]; 100 uM): 0.82; Speed 8 to 10 (effect size, late speed) ([3]; 100 uM): 0.82; Speed 1 to 7 (effect size, early speed) ([3]; 300 uM): 0.3; Speed 8 to 10 (effect size, late speed) ([3]; 300 uM): 0.54 |
| O=C(NO)c1cccc(OCCN2C(=O)c3ccccc3Oc3ccccc32)c1 | 0.1 to 1 µM | > 15 µM |  |
| O=C(NO)c1ccc(OCCN2C(=O)c3ccccc3Oc3ccccc32)cc1 | < 0.05 µM | < 1 µM |  |
| CN1CCC2=C(C1)Oc1ccccc1N(CCOc1ccc(C(=O)NO)cc1)C2=O | < 0.05 µM | < 1 µM |  |
| O=C(NO)c1ccc(OCCN2C(=O)CCOc3ccccc32)cc1 | < 0.05 µM | < 1 µM |  |
| O=C(NO)c1ccc(OCCN2C(=O)c3cccnc3Oc3ccccc32)cc1 | < 0.05 µM | < 1 µM |  |
| O=C(NO)c1ccc(OCCN2C(=O)c3ccncc3Oc3ccccc32)cc1 | < 0.05 µM | < 1 µM |  |
| O=C(NO)c1ccc(C2=Nc3ccccc3Oc3ccsc32)cc1 [(Z)-4-(benzo[b]thieno[2,3-f][1,4]oxazepin-10-yl)-N-hydroxybenzamide] |  |  | IC50 ([1]; read-out: HDAC Inhibtion (IC50 μM) HDAC Enzyme): < 0.05 µM; IC50 ([2]; whole cell, read-out: HDAC Inhibtion (IC50 μM) WC mouse cortical neurons): 1 to 5 µM |

Continued, in another order:

| IC50 [1, 4] | IC50 [2, 5] | Structure (SMILES) | other results |
| --- | --- | --- | --- |
| 0.05 to 0.1 µM | < 1 µM | O=C(NO)c1ccc(OCCN2C(=O)c3ccccc3Oc3ccccc32)c(F)c1 |  |
| < 0.05 µM | < 1 µM | O=C(NO)c1ccc(OCCN2C(=O)c3cc(F)ccc3Oc3ccccc32)cc1 |  |
| < 0.05 µM | 1 to 5 µM | O=C(NO)c1ccc(OCCN2CCOc3ccccc3C2=O)cc1 |  |
